Measurements from patent US20040235792A1, “Serine protease inhibitors compromising a hydrogen-bond acceptor” (priority 2001, published 2004).
Where a SMILES comes first, the peptide text is derived from it. [ ]: non-standard residue; d: D form. dPip = O=C(O)[C@H]1CCCCN1

Experiments:
[1] = biological target: protein Ca (Homo sapiens, UniProt P04070); details: read-out: IC50 (protein Ca system); cited from earlier work
[2] = biological target: T1, FIXa (Homo sapiens, UniProt P00740); assay: Score assay, FIXa (chromogenic substrate Pefachrome IXa); type: biochemical; set-up: key: fold increase in inhibitor conc / inhibitor conc used (mM); details: Score = fold increase in inhibitor concentration / concentration of inhibitor used (in mM), 37° C., pH 7.4
T1 construct: FIXa was obtained from Haematologics; purchased Haematologics
Description: (§1) Score gives a facile measure of the effectiveness of an inhibitor requiring only one or two data points, rather than the twelve or more data points required to calculate an IC50.
(§2) The principle behind calculating the score is that, although the absolute values obtained from inhibitors of the same type may be different, the shape and range of the IC50 curves are quite similar.
(§3) Molecular Devices Corp. Thermomax plate reader.
Pefachrome IXa (Kordia, for FIXa)
(§4) Buffer for FIXa assay: 50 mM Tris; 100 mM sodium chloride; 0.5% PEG 6000, pH 7.4. The aqueous buffer was freshly mixed each day with ethylene glycol (65%:35% respectively) Human α-thrombin was obtained from J. Freysinnet (Strasbourg).
FIXa was obtained from Haematologics.
FIXa (50 μl of a stock at 0.01 mg/ml) is added.
(§5) The data from IC50 curves for 13 compounds were used to construct an average IC50 curve.
(§6) The average values for the fold increase at each 10% step are shown below:
(§7) Measurement of single concentrations of inhibitor on a plate reader (using MDC ‘Softmax’ software) gave a value from 9 to 0 when compared to a control without inhibitor which corresponds to the % inhibition a shown in Table 1. Provided that the plate reader number was >2 but <8 (linear part of the graph) the score could then be calculated as follows.
(§8) Score=fold increase in inhibitor concentration (see table 1)/concentration of inhibitor used (in mM)

[3] = biological target: T2, Human α-thrombin (Homo sapiens, UniProt P00734); assay: Score assay, Thr (chromogenic substrate S-2238); type: biochemical; details: Score = fold increase in inhibitor concentration / concentration of inhibitor used (in mM), 37° C., pH 7.4
T2 construct: Human α-thrombin was obtained from J. Freysinnet (Strasbourg); purchased J. Freysinnet (Strasbourg)
Excerpt: as §1, §2, §3
S-2238 (H-D-Phe-Pip-Arg-pNA, for Thr) was obtained from Quadratech.
(§9) Buffer for Thr, Try, Pla, UK or Xa assay: 0.1M sodium phosphate; 0.2M sodium chloride; 0.5% PEG6000; 0.02% sodium azide, pH 7.4.
as §4
Inhibitor (100 μl of dilution in buffer of 1/20 or higher as appropriate from stock in DMSO) is added to substrate (50 μl of a dilution of 1/100 of 2.4 mg/ml stock) for 2 minutes at 37° C. Thr (50 μl of a dilution of {fraction (1/10,000)} of stock at 1 mg/ml) is added.
as §5, §6, §7, §8

[4] = biological target: Try (trypsin) (Homo sapiens, UniProt P07477); assay: Score assay, Try (chromogenic substrate S-2288); type: biochemical; set-up: key: score = fold increase in inhibitor conc / inhibitor conc used (mM); details: Table 3, substrate 25 μM
Excerpt: as §1, §2, §3
S-2288 (H-D-Ileu-Pro-Arg-pNa for Try) was obtained from Quadratech.
as §9
(§10) Final Substrates Concentrations were 25 μM, 113 μM, 22 μM and 125 μM for Try, Pla, Xa and UK Respectively.
as §5, §6, §7, §8

[5] = biological target: Xa (factor X activated) (Homo sapiens, UniProt P00742); assay: Score assay, Xa (chromogenic substrate S-2765); type: biochemical; set-up: key: score = fold increase in inhibitor conc / inhibitor conc used (mM); details: Table 3, substrate 22 μM
Excerpt: as §1, §2, §3
S-2765 (N-α-Z-D-ArgGly-Arg-pNa for Xa) was obtained from Quadratech.
as §9, §10, §5, §6, §7, §8

[6] = biological target: Pla (plasmin) (Homo sapiens, UniProt P00747); assay: Score assay, Pla (chromogenic substrate S-2251); type: biochemical; details: Table 3, substrate 113 μM
Excerpt: as §1, §2, §3
S-2251 (H-D-Val-Leu-Lys-pNa for Pla) was obtained from Quadratech.
as §9, §10, §5, §6, §7, §8

[7] = biological target: UK (urokinase) (Homo sapiens, UniProt P00749); assay: Score assay, UK (chromogenic substrate S-2444); type: biochemical; set-up: key: score = fold increase in inhibitor conc / inhibitor conc used (mM); details: Table 3, substrate 125 μM
Excerpt: as §1, §2, §3
S-2444 (pyro-Glu-Gly-Arg-pNa for UK) was obtained from Quadratech.
as §9, §10, §5, §6, §7, §8

[8] = biological target: thrombin (Homo sapiens, UniProt P00734); details: cited from earlier work; for KassThr/KassThy: selectivity ratio
[9] = cited from earlier work
[10] = Table 1 comparators, single concentration, higher = more effective
[11] = Table 1 comparators, single concentration

Xa (factor X activated), sequence (P00742 235-488 limits assumed): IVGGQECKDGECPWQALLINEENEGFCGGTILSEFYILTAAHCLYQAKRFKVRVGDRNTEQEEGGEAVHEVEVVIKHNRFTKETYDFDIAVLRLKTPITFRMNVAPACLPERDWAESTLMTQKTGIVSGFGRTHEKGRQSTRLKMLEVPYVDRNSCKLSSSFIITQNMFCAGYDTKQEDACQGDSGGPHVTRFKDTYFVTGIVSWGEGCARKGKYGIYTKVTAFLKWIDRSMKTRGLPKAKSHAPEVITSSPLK
Xa (factor X activated), sequence (P00742 41-179 partner limits assumed): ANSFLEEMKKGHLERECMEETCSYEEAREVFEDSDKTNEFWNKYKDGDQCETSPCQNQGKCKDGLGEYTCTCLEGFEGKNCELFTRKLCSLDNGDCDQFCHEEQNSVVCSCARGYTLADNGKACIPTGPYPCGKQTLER
T1 sequence (P00740 227-461 limits assumed): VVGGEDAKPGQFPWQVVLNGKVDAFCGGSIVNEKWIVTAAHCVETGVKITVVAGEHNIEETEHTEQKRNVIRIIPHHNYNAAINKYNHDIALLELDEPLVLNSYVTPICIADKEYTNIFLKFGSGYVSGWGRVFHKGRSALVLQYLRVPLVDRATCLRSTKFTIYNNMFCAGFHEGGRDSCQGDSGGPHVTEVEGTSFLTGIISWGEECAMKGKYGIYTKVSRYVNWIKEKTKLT
T1 sequence (P00740 47-191 partner limits assumed): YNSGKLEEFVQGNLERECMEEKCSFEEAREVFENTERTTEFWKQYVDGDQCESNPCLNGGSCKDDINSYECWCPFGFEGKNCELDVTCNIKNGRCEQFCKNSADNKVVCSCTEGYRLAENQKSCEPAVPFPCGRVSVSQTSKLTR
Pla (plasmin), sequence (P00747 581-810 limits assumed, species assumed): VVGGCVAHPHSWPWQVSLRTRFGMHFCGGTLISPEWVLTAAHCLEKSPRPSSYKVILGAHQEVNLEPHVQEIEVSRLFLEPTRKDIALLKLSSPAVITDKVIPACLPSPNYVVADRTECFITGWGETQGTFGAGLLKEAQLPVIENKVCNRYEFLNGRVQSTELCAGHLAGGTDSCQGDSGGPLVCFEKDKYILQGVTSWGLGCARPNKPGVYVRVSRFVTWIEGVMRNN
Pla (plasmin), sequence (P00747 97-580 partner limits assumed, species assumed): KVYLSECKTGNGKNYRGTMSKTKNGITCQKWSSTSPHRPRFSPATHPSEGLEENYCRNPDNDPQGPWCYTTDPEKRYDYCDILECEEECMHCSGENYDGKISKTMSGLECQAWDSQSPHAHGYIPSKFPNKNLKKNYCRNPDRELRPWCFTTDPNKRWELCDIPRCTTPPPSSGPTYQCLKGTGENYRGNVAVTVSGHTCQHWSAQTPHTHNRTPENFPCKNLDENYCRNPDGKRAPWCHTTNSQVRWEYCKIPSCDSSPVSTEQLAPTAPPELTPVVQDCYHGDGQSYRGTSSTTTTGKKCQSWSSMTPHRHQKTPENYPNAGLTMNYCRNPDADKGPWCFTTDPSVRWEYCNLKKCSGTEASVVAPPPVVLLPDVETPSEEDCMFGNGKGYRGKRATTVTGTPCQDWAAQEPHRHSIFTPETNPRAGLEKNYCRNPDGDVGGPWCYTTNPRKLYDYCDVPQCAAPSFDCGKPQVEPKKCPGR
protein Ca, sequence (P04070 212-461 limits assumed): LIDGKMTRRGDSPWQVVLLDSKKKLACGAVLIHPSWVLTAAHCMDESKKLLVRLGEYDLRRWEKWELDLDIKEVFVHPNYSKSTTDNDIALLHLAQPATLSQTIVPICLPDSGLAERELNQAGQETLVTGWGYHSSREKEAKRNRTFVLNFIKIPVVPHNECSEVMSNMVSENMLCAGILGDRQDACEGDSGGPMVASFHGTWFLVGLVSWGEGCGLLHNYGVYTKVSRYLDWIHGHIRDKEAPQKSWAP
protein Ca, sequence (P04070 43-197 partner limits assumed): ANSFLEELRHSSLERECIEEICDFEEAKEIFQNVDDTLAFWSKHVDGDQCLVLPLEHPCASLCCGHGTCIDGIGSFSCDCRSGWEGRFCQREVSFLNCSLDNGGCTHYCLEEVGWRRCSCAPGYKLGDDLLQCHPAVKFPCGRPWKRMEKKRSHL

SMILES	FIXa score ([2]; Table 3)	Thr Score ([3]; Table 3)	Try (score) [4]	Xa (score) [5]	Pla (score) [6]	UK (score) [7]	other results
CC(=O)NC(Cc1ccccc1)C(=O)N1CCCC1C(=O)NC(CCCNC(=N)N)B(O)O [DuP 714, Ac-D-Phe-Pro-boro Arg-OH]	–	–	–	–	–	–	IC50 [1]: 750 nM
Br.N=C(N)SCc1cccc(I)c1 [compound 885]	–	–	–	–	–	–	FIXa score [2, 10]: 0.6; Thr Score [3, 11]: 10
Br.N=C(N)NC(=N)Nc1ccc(I)cc1 [compound 932]	–	–	–	–	–	–	FIXa score [2, 10]: 0.3; Thr Score [3, 11]: 0
CC(C)Cc1ccc(Oc2ccc(B3OC(C)(C)C(C)(C)O3)cc2CSC(=N)N)cc1 [compound 1059]	285	1959	–	–	–	–	–
N#Cc1cccc(Oc2ccc(B(O)O)cc2CSC(=N)N)c1 [compound 1069]	229	4156	–	–	–	–	–
CC1(C)OB(c2ccc(Oc3ccccc3)c(CSC(=N)N)c2)OC1(C)C [compound 1055]	291	2768	–	–	–	–	–
COc1ccc(CSC(=N)N)cc1B1OC(C)(C)C(C)(C)O1 [compound 973]	32	1210	167	167	121	1210	–
CC(C)N(CC(=O)N[C@H](C=O)CCCNC(=N)N)C(=O)[C@H]1CCCCN1 [D-hPro-(Nα-isopropyl)Gly-Arg-H]	–	–	–	–	–	–	KassThr/KassThy [8]: 20
Cc1cc(CSC(=N)N)cc(B(O)O)c1 [compound 967]	205	1645	3	905	312	785	–
Br.CC(C)c1ccc(NC(=N)NC(=N)N)c(Br)c1 [compound 931]	–	–	–	–	–	–	FIXa score [2, 10]: 0.8; Thr Score [3, 11]: 7.7
N=C(N)SCc1cc(CSC(=N)N)cc(B(O)O)c1 [compound 968]	59.6	1215	640	1862	640	880	–
CC1(C)OB(c2ccccc2CSC(=N)N)OC1(C)C [compound 832]	7	70	7	7	1	26	–
N=C(N)SCc1cc(B(O)O)ccc1Oc1ccccc1 [compound 977]	306	333	583	889	583	583	–
N=C(N)SCc1cccc([N+](=O)[O-])c1 [compound 896]	2	295	4	4	2	3	–
CC1(C)OB(c2cccc(CNC(=N)N)c2)OC1(C)C [compound 1006]	46	106	37	51	27	70	–
Br.N=C(N)NC(=N)Nc1cc(F)cc(F)c1Br [compound 929]	–	–	–	–	–	–	FIXa score [2, 10]: 1.6; Thr Score [3, 11]: 0
Br.Cc1ccc(I)cc1NC(=N)NC(=N)N [compound 930]	–	–	–	–	–	–	FIXa score [2, 10]: 0.6; Thr Score [3, 11]: 0
c1ccc2ncccc2c1 [quinoline]	–	–	–	–	–	–	pKa [9]: 4.0

SMILES	FIXa score ([2]; Table 3)	Thr Score ([3]; Table 3)	Try (score) [4]	Xa (score) [5]	Pla (score) [6]	UK (score) [7]	other results
N=C(N)SCc1cc(B(O)O)ccc1Oc1ccc2c(c1)CCCC2 [compound 1070]	346	2174	–	–	–	–	–
COc1cccc(Oc2ccc(B3OC(C)(C)C(C)(C)O3)cc2CSC(=N)N)c1 [compound 1058]	97	666	–	–	–	–	–
CC(=O)NNC(=N)SCc1cccc(B(O)O)c1 [compound 915]	10.1	2.0	2	1	1	4	–
N=C(N)NCCC[C@@H](C=O)NC(=O)[C@@H]1CCCN1C(=O)[C@H]1CCCCN1 [D-hPro-Pro-Arg-H] (H-[dPip]-Pro-Arg-aldehyde)	–	–	–	–	–	–	KassThr [8]: 2e+06 L/mol
N=C(N)SCc1cccc(B(O)O)c1 [compound 864]	209	421	868	868	289	776	–
N=C(N)SCc1ccccc1B(O)O [compound 865]	5.4	70	7	7	3	26	–
CC(SC(=N)N)c1cccc(B2OC(C)(C)C(C)(C)O2)c1 (centres unmarked) [compound 974]	64	6769	324	680	324	934	–
CC1(C)OB(c2ccc(Oc3cccc(Cl)c3)c(CSC(=N)N)c2)OC1(C)C [compound 1057]	157	572	–	–	–	–	–
CC1(C)OB(c2ccc(N3CCN(c4ccccn4)CC3)c(CSC(=N)N)c2)OC1(C)C [compound 1031]	39.0	15(*)	–	–	–	–	–
CN=C(N)SCc1cccc(B(O)O)c1 [compound 903]	19	38.7	21	39	21	27	–
CC(C)(C)OC(=O)N=C(N)N(Cc1cccc(B2OC(C)(C)C(C)(C)O2)c1)C(=O)OC(C)(C)C [compound 970]	80	12	–	–	–	–	–
CN[C@H](Cc1ccccc1)C(=O)N1CCC[C@H]1C(=O)N[C@H](C=O)CCCN=C(N)N [LY294468, H-D-MePhe-Pro-Arginal]	–	–	–	–	–	–	KassThr [8]: 5.4e+06 L/mol; KassThr/KassThy [8]: 5.1
CC1(C)OB(c2cccc(CSC(=N)N)c2)OC1(C)C [compound 852]	76	326	624	624	393	792	–
N=C(N)SCc1cc(B(O)O)ccc1Oc1ccc(C(=O)c2ccccc2)cc1 [compound 1072]	746	1410	–	–	–	–	–
N=C(N)SCc1ccc(B(O)O)cc1 [compound 866]	6.4	6.4	440	6	32	3076	–
CC1(C)OB(c2ccc(Oc3ccc(Oc4ccccc4)cc3)c(CSC(=N)N)c2)OC1(C)C [compound 1056]	626	455	–	–	–	–	–
Br.COC(=O)c1cccc(CSC(=N)N)c1 [compound 887]	–	–	–	–	–	–	FIXa score [2, 10]: 0.9; Thr Score [3, 11]: 5.3
